Laboratory results from patent US12503485B2, “Human aminosterol ENT-03 compounds, related compositions comprising the same, and methods of using the same” (Enterin, Inc., priority 2019, dated 2025).

Target: T1, PTPN1/PTP1B (Homo sapiens, UniProt P18031)
T1 construct: The enzyme was the human truncated form (1-321), recombinantly produced in Escherichia coli; host or cells: Escherichia coli
T1 sequence (P18031 1-321): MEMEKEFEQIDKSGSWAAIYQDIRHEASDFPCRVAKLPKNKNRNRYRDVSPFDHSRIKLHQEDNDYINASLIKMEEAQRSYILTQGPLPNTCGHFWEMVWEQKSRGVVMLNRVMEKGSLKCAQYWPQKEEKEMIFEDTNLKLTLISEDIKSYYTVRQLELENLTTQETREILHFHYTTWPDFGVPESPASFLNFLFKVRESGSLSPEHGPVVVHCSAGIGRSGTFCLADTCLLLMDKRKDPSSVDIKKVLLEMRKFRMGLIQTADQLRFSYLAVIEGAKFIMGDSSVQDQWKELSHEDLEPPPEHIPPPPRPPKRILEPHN
Assay: Phosphatase profiling PTPN1/PTP1B, 10-dose IC50, fluorescence
Type: biochemical

## CC(C)[C@@H](CC[C@@H](C)[C@H]1CC[C@H]2[C@@H]3[C@H](O)C[C@H]4C[C@@H](NCCCNCCCCNCCCN)CC[C@]4(C)[C@H]3CC[C@]12C)OS(=O)(=O)O (single isomer, unassigned) [ENT-02, trodusquemine]
Conc 1.00E−04 M
  % Activity: −0.16%
  Slope (signal/min): −68 signal/min
Conc 1.11E−05 M
  % Activity: 0.68%
  Slope (signal/min): 292 signal/min
Conc 1.23E−06 M
  % Activity: 86.43%
  Slope (signal/min): 37260 signal/min
Conc 1.37E−07 M
  % Activity: 93.11%
  Slope (signal/min): 40137 signal/min
Conc 1.52E−08 M
  % Activity: 102.11%
  Slope (signal/min): 44021 signal/min
Conc 3.33E−05 M
  % Activity: −1.02%
  Slope (signal/min): −440 signal/min
Conc 3.70E−06 M
  % Activity: 38.12%
  Slope (signal/min): 16431 signal/min
Conc 4.12E−07 M
  % Activity: 92.69%
  Slope (signal/min): 39959 signal/min
Conc 4.57E−08 M
  % Activity: 99.09%
  Slope (signal/min): 42717 signal/min
Conc 5.08E−09 M
  % Activity: 100.94%
  Slope (signal/min): 43513 signal/min
IC50 curve fit
  HILLSLOPE: −2.19
